11 compounds from ChEMBL document CHEMBL5465560, “Selectivity Literature for EUbOPEN Chemogenomic Library” (2024) can be followed below.

The target in assay [1] is T1, Ephrin type-B receptor 3 (Homo sapiens) (UniProt P54753).
T1 sequence (whole entry): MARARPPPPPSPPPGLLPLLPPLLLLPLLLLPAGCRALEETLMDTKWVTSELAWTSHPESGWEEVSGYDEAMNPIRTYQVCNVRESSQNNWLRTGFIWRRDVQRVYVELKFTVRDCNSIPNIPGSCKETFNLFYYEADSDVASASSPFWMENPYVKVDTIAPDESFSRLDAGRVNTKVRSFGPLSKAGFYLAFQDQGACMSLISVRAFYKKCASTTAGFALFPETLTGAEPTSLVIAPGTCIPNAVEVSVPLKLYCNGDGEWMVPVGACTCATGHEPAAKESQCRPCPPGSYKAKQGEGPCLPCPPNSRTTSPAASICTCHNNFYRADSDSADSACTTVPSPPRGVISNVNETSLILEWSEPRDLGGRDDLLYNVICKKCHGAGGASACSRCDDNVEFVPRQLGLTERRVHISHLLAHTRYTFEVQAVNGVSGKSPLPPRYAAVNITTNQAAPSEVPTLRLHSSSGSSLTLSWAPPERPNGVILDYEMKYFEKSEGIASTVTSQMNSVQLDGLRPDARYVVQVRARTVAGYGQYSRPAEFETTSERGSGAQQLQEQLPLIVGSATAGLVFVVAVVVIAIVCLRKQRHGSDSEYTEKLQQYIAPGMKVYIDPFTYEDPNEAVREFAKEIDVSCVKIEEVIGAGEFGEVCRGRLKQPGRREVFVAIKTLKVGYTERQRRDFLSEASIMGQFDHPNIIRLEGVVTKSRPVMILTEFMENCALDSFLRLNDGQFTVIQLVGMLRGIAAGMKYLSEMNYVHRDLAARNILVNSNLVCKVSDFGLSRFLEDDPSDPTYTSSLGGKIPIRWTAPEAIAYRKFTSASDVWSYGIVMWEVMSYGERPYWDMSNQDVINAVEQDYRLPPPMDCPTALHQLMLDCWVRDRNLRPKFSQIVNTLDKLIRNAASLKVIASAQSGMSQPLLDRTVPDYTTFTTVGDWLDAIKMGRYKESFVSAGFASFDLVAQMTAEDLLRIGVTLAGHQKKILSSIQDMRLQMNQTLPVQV
Kind of assay: Selectivity interaction (Kinase panel (Z-LYTE Assay)) EUB0001632a EPHB3. The settings on record: at 10 µM.

For assay [2], the target named is TGF-beta receptor type-2 (Homo sapiens) (UniProt P37173). Kind of assay: Selectivity interaction (LanthaScreen Eu Kinase Binding Assay) EUB0001632a TGFBR2. The settings on record: at 10 µM. (In general: Time-resolved FRET reads energy transfer from a long-lived donor to a nearby acceptor.)
In assay [3] the target is Phosphatidylinositol 4,5-bisphosphate 3-kinase catalytic subunit beta isoform (Homo sapiens) (UniProt P42338). Briefly: Selectivity interaction (KinomeScan (DiscoverX)) EUB0000595a PIK3CB. The settings on record: at 10 µM.
Phosphatidylinositol 4,5-bisphosphate 3-kinase catalytic subunit beta isoform (Homo sapiens), sequence (P42338 whole entry, looked up, canonical isoform): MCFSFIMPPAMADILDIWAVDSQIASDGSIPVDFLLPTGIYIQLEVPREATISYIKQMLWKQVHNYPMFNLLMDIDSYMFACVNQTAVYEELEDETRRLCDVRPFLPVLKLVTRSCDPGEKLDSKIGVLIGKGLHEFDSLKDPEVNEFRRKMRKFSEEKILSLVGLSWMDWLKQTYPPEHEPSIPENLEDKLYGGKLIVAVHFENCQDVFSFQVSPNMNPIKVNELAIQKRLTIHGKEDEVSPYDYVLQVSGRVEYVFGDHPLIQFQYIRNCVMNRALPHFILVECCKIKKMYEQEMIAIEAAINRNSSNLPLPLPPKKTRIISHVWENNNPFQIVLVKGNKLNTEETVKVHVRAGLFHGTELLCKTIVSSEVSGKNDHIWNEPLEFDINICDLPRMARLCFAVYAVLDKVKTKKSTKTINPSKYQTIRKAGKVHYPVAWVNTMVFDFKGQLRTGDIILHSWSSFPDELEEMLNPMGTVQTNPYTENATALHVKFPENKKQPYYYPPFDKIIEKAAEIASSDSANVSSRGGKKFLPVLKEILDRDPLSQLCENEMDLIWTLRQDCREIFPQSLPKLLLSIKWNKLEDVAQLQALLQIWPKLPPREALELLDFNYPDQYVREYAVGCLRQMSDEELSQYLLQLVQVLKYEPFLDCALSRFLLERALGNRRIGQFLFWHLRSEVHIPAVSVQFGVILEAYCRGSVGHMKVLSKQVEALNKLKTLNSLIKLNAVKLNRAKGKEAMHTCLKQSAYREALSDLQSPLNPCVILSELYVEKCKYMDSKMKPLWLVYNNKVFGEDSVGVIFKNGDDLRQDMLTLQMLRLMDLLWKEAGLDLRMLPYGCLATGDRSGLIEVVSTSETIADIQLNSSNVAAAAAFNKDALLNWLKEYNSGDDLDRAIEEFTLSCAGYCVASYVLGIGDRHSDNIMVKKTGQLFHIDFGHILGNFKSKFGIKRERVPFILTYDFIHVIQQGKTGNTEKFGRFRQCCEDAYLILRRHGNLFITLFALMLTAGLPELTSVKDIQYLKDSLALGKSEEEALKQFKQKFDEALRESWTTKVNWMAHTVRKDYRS
Assay [4] addresses Tyrosine-protein kinase CSK (Homo sapiens) (UniProt P41240). Briefly: Selectivity interaction (KinomeScan (DiscoverX)) EUB0001619a CSK. The settings on record: at 1 µM.
The target of assay [5] is Serine/threonine-protein kinase 38-like (Homo sapiens) (UniProt Q9Y2H1). Kind of assay: Selectivity interaction (KinomeScan (DiscoverX)) EUB0000695a STK38L. The settings on record: at 100 nM.
Serine/threonine-protein kinase 38-like (Homo sapiens), sequence (Q9Y2H1 2-464 limits assumed): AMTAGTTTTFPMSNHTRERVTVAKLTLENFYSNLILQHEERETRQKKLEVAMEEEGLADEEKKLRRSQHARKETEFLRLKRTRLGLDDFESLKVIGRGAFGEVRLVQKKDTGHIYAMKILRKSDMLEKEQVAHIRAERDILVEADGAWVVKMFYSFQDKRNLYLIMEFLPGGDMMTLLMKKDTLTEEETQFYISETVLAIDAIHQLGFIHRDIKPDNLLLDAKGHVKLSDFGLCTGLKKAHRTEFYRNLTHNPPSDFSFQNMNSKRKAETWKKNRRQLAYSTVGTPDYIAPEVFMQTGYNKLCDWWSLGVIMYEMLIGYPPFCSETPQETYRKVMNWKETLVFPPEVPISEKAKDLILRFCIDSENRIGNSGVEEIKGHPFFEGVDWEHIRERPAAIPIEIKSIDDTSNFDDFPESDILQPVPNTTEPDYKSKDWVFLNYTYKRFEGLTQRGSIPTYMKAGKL
Assay [6] deals with G protein-coupled receptor kinase 4 (Homo sapiens) (UniProt P32298). Kind of assay: Selectivity interaction (KinomeScan (DiscoverX)) EUB0000607a GRK4. The settings on record: at 10 µM.
Assay [7] has as its target Death-associated protein kinase 1 (Homo sapiens, UniProt P53355). Kind of assay: Selectivity interaction (Kinase panel (Invitrogen)) EUB0000639a DAPK1. The settings on record: at 200 nM.
For assay [8], the target named is Serine/threonine-protein kinase Nek6 (Homo sapiens) (UniProt Q9HC98). Kind of assay: Selectivity interaction (ActivX KiNativ screen (kinase selectivity in THP-1 cell lysates)) EUB0000639a NEK6. Type of assay: subcellular. The settings on record: lysate.
Serine/threonine-protein kinase Nek6 (Homo sapiens), sequence (Q9HC98 whole entry): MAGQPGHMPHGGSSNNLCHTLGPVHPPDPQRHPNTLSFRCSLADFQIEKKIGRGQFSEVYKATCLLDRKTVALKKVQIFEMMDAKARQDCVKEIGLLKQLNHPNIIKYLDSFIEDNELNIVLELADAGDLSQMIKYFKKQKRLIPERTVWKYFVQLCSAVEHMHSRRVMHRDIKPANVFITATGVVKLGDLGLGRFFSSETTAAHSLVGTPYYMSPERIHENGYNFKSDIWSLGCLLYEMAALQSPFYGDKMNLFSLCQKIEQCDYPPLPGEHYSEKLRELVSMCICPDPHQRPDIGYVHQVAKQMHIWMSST
For assay [9], the target named is Serine/threonine-protein kinase mTOR (Homo sapiens, UniProt P42345). Briefly: Selectivity interaction (Ambit KINOMEscan and KiNATiv profiling in Jurkat cells) EUB0000090b MTOR. The format is cell-based. The settings on record: at 1 µM.
In assay [10] the target is Cyclin-dependent kinase 14 (Homo sapiens) (UniProt O94921). Kind of assay: Selectivity interaction (Ambit KINOMEscan and KiNATiv profiling in Jurkat cells) EUB0000090b CDK14. Type of assay: cell-based. The settings on record: at 1 µM.
Assay [11] deals with Fibroblast growth factor receptor 2 (Homo sapiens) (UniProt P21802). Briefly: Selectivity interaction (Upstate Kinase Profiler service (Millipore)) EUB0000056c FGFR2. The settings on record: at 1 µM.
Fibroblast growth factor receptor 2 (Homo sapiens), sequence (P21802 22-821 limits assumed): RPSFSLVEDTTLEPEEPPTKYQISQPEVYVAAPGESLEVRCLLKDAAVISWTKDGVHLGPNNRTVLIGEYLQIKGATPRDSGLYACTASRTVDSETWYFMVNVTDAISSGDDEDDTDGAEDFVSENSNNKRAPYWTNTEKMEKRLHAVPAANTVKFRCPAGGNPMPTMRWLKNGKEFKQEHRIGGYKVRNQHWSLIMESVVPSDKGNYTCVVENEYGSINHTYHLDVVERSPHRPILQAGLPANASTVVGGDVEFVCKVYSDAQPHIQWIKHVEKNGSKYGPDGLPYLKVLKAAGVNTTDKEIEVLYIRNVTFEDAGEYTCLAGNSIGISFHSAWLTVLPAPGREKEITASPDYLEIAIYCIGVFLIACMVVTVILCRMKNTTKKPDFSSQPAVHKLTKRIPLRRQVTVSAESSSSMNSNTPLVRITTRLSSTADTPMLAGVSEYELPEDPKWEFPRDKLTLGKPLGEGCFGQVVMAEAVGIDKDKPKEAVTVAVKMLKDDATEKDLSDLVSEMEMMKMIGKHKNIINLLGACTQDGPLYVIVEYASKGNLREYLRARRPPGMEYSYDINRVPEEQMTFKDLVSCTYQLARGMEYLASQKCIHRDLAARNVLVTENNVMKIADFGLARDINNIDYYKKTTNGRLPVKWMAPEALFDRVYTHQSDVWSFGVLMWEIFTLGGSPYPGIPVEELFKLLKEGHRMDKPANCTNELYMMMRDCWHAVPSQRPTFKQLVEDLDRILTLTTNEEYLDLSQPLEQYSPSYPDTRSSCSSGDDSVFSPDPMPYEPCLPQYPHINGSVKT
Assay [12] concerns the target T2, Dual specificity mitogen-activated protein kinase kinase 4 (Homo sapiens) (UniProt P45985).
T2 sequence (whole entry): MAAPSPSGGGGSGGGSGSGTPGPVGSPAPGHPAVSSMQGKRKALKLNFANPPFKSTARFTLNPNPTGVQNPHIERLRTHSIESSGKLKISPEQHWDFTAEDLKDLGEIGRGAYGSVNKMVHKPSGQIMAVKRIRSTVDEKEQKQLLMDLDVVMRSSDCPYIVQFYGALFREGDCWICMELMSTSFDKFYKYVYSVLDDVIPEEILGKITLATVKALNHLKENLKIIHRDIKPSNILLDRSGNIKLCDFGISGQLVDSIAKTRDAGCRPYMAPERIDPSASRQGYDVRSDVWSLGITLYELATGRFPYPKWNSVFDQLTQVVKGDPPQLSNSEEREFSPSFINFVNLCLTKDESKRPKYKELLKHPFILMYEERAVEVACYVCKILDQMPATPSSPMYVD
Kind of assay: Selectivity interaction (KinomeScan (DiscoverX)) EUB0000655a MAP2K4. The settings on record: at 10 µM.

Assay [13] concerns the target DNA mismatch repair protein Msh6 (Homo sapiens) (UniProt P52701). Kind of assay: Selectivity interaction (PWWP, WD40, and Tudor domain panel (DSLS measurements, literature)) EUB0000270b MSH6.
Assay [14] addresses Dual specificity mitogen-activated protein kinase kinase 1 (Homo sapiens, UniProt Q02750).

Tyrosine-protein kinase CSK (Homo sapiens), sequence (P41240 2-450 limits assumed): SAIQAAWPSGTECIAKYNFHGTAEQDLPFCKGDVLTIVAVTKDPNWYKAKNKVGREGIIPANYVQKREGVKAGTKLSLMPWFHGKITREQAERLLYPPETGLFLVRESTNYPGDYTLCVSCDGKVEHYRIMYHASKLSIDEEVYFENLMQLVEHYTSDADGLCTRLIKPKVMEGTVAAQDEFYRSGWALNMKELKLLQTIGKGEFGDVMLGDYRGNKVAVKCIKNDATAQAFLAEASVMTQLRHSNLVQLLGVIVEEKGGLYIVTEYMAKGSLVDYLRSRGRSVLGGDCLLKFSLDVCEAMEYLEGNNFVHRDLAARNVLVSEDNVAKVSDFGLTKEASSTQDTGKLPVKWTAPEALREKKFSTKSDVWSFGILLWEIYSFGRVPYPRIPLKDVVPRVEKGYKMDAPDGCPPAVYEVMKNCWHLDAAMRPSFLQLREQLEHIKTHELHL
Dual specificity mitogen-activated protein kinase kinase 1, sequence (Q02750 whole entry): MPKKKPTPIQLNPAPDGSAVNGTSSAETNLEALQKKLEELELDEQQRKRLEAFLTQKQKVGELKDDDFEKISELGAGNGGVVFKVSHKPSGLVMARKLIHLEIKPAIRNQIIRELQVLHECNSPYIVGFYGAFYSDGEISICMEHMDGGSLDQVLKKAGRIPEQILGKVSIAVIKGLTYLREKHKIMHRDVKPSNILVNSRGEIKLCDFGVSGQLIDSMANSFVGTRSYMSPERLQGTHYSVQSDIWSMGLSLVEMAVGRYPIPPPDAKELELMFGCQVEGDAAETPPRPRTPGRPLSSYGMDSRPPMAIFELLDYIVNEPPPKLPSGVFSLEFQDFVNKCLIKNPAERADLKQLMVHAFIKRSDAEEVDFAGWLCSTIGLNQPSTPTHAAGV
Death-associated protein kinase 1, sequence (P53355 whole entry, looked up): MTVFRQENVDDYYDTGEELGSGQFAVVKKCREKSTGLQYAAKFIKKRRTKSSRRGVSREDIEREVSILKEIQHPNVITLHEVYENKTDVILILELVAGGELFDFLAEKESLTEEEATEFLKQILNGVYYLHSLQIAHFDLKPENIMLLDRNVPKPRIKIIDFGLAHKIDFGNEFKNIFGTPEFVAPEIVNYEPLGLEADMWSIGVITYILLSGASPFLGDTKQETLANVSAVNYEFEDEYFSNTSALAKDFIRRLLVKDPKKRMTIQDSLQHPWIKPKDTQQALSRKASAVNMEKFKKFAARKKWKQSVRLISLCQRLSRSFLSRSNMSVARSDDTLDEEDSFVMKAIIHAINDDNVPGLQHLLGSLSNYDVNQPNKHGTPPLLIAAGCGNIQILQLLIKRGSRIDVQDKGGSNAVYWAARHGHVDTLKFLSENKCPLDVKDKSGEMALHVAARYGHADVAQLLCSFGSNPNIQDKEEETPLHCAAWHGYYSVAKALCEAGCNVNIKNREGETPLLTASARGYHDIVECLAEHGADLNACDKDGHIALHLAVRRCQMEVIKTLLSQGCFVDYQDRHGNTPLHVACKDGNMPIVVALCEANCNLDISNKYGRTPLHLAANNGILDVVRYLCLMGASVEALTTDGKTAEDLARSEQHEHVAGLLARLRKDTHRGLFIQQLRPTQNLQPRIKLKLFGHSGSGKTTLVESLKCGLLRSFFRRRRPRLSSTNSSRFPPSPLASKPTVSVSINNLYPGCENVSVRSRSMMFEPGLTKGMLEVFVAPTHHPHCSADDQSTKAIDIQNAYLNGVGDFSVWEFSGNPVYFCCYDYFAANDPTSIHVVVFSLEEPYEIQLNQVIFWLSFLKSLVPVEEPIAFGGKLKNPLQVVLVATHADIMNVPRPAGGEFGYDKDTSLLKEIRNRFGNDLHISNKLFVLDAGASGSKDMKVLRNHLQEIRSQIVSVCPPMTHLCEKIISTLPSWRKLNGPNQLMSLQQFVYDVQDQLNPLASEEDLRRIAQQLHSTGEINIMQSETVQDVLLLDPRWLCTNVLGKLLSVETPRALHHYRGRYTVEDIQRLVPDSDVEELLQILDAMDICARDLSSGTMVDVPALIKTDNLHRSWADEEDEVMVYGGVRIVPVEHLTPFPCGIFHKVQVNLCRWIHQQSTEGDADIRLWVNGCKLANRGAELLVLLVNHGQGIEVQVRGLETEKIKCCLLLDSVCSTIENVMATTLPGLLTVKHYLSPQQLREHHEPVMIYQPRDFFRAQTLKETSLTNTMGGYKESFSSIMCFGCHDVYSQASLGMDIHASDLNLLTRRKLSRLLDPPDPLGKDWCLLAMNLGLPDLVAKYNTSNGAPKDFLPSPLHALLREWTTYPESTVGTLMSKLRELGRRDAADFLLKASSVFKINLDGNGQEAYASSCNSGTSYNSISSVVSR

`Cn1cc(-n2cnc3c(NCc4nc5cc(Cl)c(Cl)cc5[nH]4)nc(N4CCOCC4)nc32)cn1` had a % of control in [1] of 2.4%. In addition, the % of inhibition in [2] is -26.6%.

`COCC(=O)NC/C=C/c1ccc2ncnc(Nc3ccc(Oc4ccc(C)nc4)c(C)c3)c2c1` [CP-724714] registered a % of control in [3] of 100%.

For the compound `N#Cc1cccc(-c2c[nH]c3ncnc(N4CCOCC4)c23)c1`, the % of control in assay [4] stood at 96%.

`Cc1cc(F)c(C(=O)Nc2cccc(-c3nncn3C(C)C)n2)cc1-n1cnc(C2CC2)c1` had a % of control in assay [5] of 100%.

Compound `CNC(=O)Nc1ccc(-c2nc(N3CC4CCC(C3)O4)c3cnn(C4CCC5(CC4)OCCO5)c3n2)cc1` had a % of control in [6] of 100%.

Turning to `CC[C@@H]1[C@H](F)C(=O)N[C@@H]1COc1nccc2cc(C(N)=O)c(OC)cc12` [ZIMLOVISERTIB], the % of inhibition is 16.2% in assay [7]; -2.2% in assay [8] (at 0.01 µM); 1.5% in assay [8] (at 0.04 µM); -2.2% in [8] (at 0.2 µM); 2% in assay [8] (at 1 µM); -1.4% in assay [8] (at 5 µM).

Take `CN(C)C/C=C/C(=O)Nc1ccc(C(=O)N2CCCC(Nc3ncc(Cl)c(-c4c[nH]c5ccccc45)n3)C2)cc1` (stereo not drawn): the % of control was 100% in assay [9] and 69% in assay [10].

Turning to `Cc1ccc(-c2ccc3c(ccc4sc5c(c43)NC[C@@H](C)NC5=O)n2)cn1`, the % of inhibition in assay [11] was -10%.

In turn, `CN(C)CCOc1ccc(-c2nc(-c3ccncc3)c(-c3ccc4c(c3)CC/C4=N\O)[nH]2)cc1` registered a % of control in assay [12] of 100%.

In [13], `Cc1cc(CN)cc(C)c1-c1ncn(C)c1-c1cncn1C` came in with a dTagg of -0.2 K.

`CC(=O)Nc1cccc(-n2c(=O)n(C3CC3)c(=O)c3c(Nc4ccc(I)cc4F)n(C)c(=O)c(C)c32)c1`: the Kdapp in assay [14] turned out to be 62 nM.
